Source: ChEMBL document CHEMBL5365466, “Discovery of Triazolyl Derivatives of Cucurbitacin B Targeting IGF2BP1 against Non-Small Cell Lung Cancer” (J Med Chem, 2023)
Active and inactive are the calls of the source. The rule behind the calls is not given here.

What was measured:
[1] = test system: A549; assay: Induction of apoptosis in human A549 cells assessed as downregulation of BCL-xl expression incubated for 48 hrs by Western blotting analysis; type: functional, cell-based
[2] = test system: A549; assay: Antiproliferative activity against human A549 cells assessed as cell growth inhibition incubated for 72 hrs by SRB assay; type: functional, cell-based; conditions: A549, 72 h
[3] = test system: A549; assay: Induction of apoptosis in human A549 cells assessed as downregulation of Cyclin D1 expression incubated for 48 hrs by Western blotting analysis; type: functional, cell-based
[4] = test system: HCT-116; assay: Antiproliferative activity against human HCT-116 cells assessed as cell growth inhibition at 1 uM incubated for 72 hrs by SRB assay; type: functional
[5] = test system: A549; assay: Induction of apoptosis in human A549 cells assessed as downregulation of CDK4 expression incubated for 48 hrs by Western blotting analysis; type: functional, cell-based
[6] = Selectivity index, ratio of IC50 for antiproliferative activity against human L02 cells to IC50 for antiproliferative activity against human MCF7 cells; type: toxicity, cell-based; conditions: L02 cells versus MCF7 cells, read-out: Ratio IC50
[7] = test system: SK-OV-3; assay: Antiproliferative activity against human SK-OV-3 cells assessed as cell growth inhibition incubated for 72 hrs by SRB assay; type: functional, cell-based; conditions: SK-OV-3, 72 h
[8] = test system: A549; assay: Induction of cell cycle arrest in human A549 cells assessed as accumulation of cells at G1 phase at 0.1 uM incubated for 24 hrs by PI staining based flow cytometric analysis (reference value: 65.6 %); type: functional
[9] = Antiproliferative activity against human L02 cells assessed as cell growth inhibition incubated for 72 hrs by SRB assay; type: toxicity, cell-based
[10] = test system: A549; assay: Induction of cell cycle arrest in human A549 cells assessed as accumulation of cells at G1 phase at 0.2 uM incubated for 24 hrs by PI staining based flow cytometric analysis (reference value: 65.6 %); type: functional
[11] = Selectivity index, ratio of IC50 for antiproliferative activity against human L02 cells to IC50 for antiproliferative activity against human MDA-MB-231 cells; type: toxicity, cell-based; conditions: L02 cells versus MDA-MB-231 cells, read-out: Ratio IC50
[12] = test system: A549; assay: Antitumor activity against human A549 cells xenografted in BALB/c mouse assessed as vacuole formation at 0.5 mg/kg,ip administrated for 21 days by hematoxylin and eosin staining based microscopic analysis; type: functional, organism-based; conditions: time 21.0 day
[13] = Selectivity index, ratio of IC50 for antiproliferative activity against human L02 cells to IC50 for antiproliferative activity against human SK-OV-3 cells
[14] = test system: A549; assay: Antiproliferative activity against human A549 cells with IGF2BP1 knockdown assessed as cell growth inhibition incubated for 72 hrs by SRB assay; type: functional, cell-based; conditions: A549, 72 h
[15] = test system: BXPC-3; assay: Antiproliferative activity against human BXPC-3 cells assessed as cell growth inhibition incubated for 72 hrs by SRB assay; type: functional, cell-based; conditions: BXPC-3, 72 h
[16] = target: T1, Insulin-like growth factor 2 mRNA-binding protein 1 (Homo sapiens, UniProt Q9NZI8); assay: Binding affinity to His-tagged recombinant IGF2BP1 (unknown origin) assessed as dissociation constant by surface plasmon resonance assay
T1 sequence (Q9NZI8 whole entry): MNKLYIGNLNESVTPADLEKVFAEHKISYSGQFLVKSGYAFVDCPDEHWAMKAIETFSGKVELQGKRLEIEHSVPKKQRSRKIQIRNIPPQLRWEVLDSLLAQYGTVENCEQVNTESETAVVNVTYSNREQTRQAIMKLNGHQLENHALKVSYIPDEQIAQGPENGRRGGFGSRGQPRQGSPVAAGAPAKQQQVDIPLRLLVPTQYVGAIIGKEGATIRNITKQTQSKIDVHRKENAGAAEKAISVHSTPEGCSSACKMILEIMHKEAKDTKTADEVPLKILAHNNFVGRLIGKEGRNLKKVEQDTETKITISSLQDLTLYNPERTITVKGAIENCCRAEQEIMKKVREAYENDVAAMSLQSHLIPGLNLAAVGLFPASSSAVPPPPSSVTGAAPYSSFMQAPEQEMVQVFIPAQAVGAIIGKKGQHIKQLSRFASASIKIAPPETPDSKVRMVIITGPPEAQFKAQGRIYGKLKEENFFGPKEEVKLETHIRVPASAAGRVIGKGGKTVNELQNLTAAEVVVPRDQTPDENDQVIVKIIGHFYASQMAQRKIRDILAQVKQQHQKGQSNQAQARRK

[17] = Selectivity index, ratio of IC50 for antiproliferative activity against human L02 cells to IC50 for antiproliferative activity against human HepG2 cells; type: toxicity, cell-based; conditions: L02 cells versus HepG2 cells, read-out: Ratio IC50
[18] = target: T1, Insulin-like growth factor 2 mRNA-binding protein 1; assay: Binding affinity to IGF2BP1 in human A549 cells assessed as protein stabilization at 1 uM at 55 degreeC incubated for 2 hrs by CETSA; type: cell-based
[19] = Selectivity index, ratio of IC50 for antiproliferative activity against human L02 cells to IC50 for antiproliferative activity against human PANC-1 cells
[20] = test system: A549; assay: Induction of apoptosis in human A549 cells assessed as increase in PARP cleavage incubated for 48 hrs by Western blotting analysis; type: functional, cell-based
[21] = test system: A549; assay: Antitumor activity against human A549 cells xenografted in BALB/c mouse assessed as decrease in tumor weight at 0.5 mg/kg,ip administrated for 21 days; type: functional, organism-based; conditions: time 21.0 day
[22] = target: T1, Insulin-like growth factor 2 mRNA-binding protein 1; assay: Binding affinity to IGF2BP1 in human A549 cells assessed as protein stabilization at 1 uM at 46 degreeC incubated for 2 hrs by CETSA; type: cell-based
[23] = test system: A549; assay: Antitumor activity against human A549 cells xenografted in BALB/c mouse assessed as reduction in Ki67 expression in tumor at 0.5 mg/kg,ip administrated for 21 days by immunohistochemical analysis; type: functional, organism-based; conditions: time 21.0 day
[24] = test system: HCT-116; assay: Antiproliferative activity against human HCT-116 cells assessed as cell growth inhibition at 0.1 uM incubated for 72 hrs by SRB assay; type: functional
[25] = test system: MDA-MB-231; assay: Antiproliferative activity against human MDA-MB-231 cells assessed as cell growth inhibition incubated for 72 hrs by SRB assay; type: functional, cell-based; conditions: MDA-MB-231, 72 h
[26] = test system: A549; assay: Induction of cell cycle arrest in human A549 cells assessed as accumulation of cells at G2 phase at 0.1 uM incubated for 24 hrs by PI staining based flow cytometric analysis (reference value: 9.26 %); type: functional
[27] = Acute toxicity in C57BL/6J mouse assessed as change in body weight at 0.75 mg/kg,ip measured after 14 days; type: organism-based; conditions: in vivo, 336 h, time 14 day
[28] = test system: A549; assay: Induction of apoptosis in human A549 cells assessed as downregulation of BCL-2 expression incubated for 48 hrs by Western blotting analysis; type: functional, cell-based
[29] = test system: A549; assay: Induction of autophagy in human A549 cells assessed as upregulation of Beclin-1 expression at 0.1 to 0.5 uM incubated for 48 hrs by Western blotting analysis; type: functional, cell-based; conditions: dose 0.1-0.5 µM
[30] = test system: A549; assay: Antitumor activity against human A549 cells xenografted in BALB/c mouse assessed as decrease in tumor volume at 0.5 mg/kg,ip administrated for 21 days; type: functional, organism-based; conditions: time 21.0 day
[31] = Selectivity index, ratio of IC50 for antiproliferative activity against human L02 cells to IC50 for antiproliferative activity against human CFPAC-1 cells
[32] = test system: A549; assay: Induction of cell cycle arrest in human A549 cells assessed as accumulation of cells at G2 phase at 0.2 uM incubated for 24 hrs by PI staining based flow cytometric analysis (reference value: 9.26 %); type: functional
[33] = test system: HCT-116; assay: Antiproliferative activity against human HCT-116 cells assessed as cell growth inhibition incubated for 72 hrs by SRB assay; type: functional, cell-based; conditions: HCT-116, 72 h
[34] = test system: HepG2; assay: Antiproliferative activity against human HepG2 cells assessed as cell growth inhibition incubated for 72 hrs by SRB assay; type: functional, cell-based; conditions: HepG2, 72 h
[35] = test system: A549; assay: Induction of cell cycle arrest in human A549 cells assessed as accumulation of cells at S phase at 0.2 uM incubated for 24 hrs by PI staining based flow cytometric analysis (reference value: 23 %); type: functional
[36] = Acute toxicity in C57BL/6J mouse assessed as death at 0.75 mg/kg,ip measured after 14 days; type: organism-based; conditions: in vivo, 336 h, time 14 day
[37] = test system: A549; assay: Induction of cell cycle arrest in human A549 cells assessed as accumulation of cells at G1 phase at 0.5 uM incubated for 24 hrs by PI staining based flow cytometric analysis (reference value: 65.6 %); type: functional
[38] = target: T1, Insulin-like growth factor 2 mRNA-binding protein 1; assay: Binding affinity to IGF2BP1 in human A549 cells assessed as protein stabilization at 1 uM at 52 degreeC incubated for 2 hrs by CETSA; type: cell-based

With `CC(=O)OC(C)(C)/C=C/C(=O)[C@](C)(O)[C@H]1[C@H](O)C[C@@]2(C)[C@@H]3CC=C4[C@@H](C[C@H](OC(=O)Cn5ncn(-c6ccc(F)cc6)c5=O)C(=O)C4(C)C)[C@]3(C)C(=O)C[C@]12C` the Activity [1] was “Dose-Dependent Effect”, the IC50 [2] was 9 nM and the Activity [3] was “Dose-Dependent Effect”. For the same compound, the inhibition at 1 µM [4] was 84.1%, the Activity [5] was “Dose-Dependent Effect” and the selectivity ratio [6] was 1.79. The IC50 [7] was 54 nM, the Activity [8] was 57.7% and the IC50 at 72 h [9] was 100 nM. For the same compound, the Activity [10] was 63.6%, the selectivity ratio [11] was 2.04 and the Activity [12] was “Active”. For the same compound, the “Ratio IC50” value [13] was 1.85, the IC50 [14] was 92 nM and the IC50 [15] was 18 nM. For the same compound, the Kd [16] was 2.88 nM, the selectivity ratio [17] was 1.25 and the Activity [18] was “Active”. The “Ratio IC50” value [19] was 1.14, the Activity [20] was “Dose-Dependent Effect” and the Activity [21] was “Active”. For the same compound, the Activity [22] was “Active”, the Activity [23] was “Active” and the inhibition at 0.1 µM [24] was 73.1%. For the same compound, the IC50 [25] was 49 nM, the Activity [26] was 10.5% and the Activity [27] was “Toxic”. For the same compound, the Activity [28] was “Dose-Dependent Effect”, the Activity [29] was “inactive” and the Activity [30] was “Active”. For the same compound, the “Ratio IC50” value [31] was 2.7, the Activity [32] was 16.4% and the IC50 [33] was 34 nM. The IC50 [34] was 80 nM, the Activity [35] was 16.6% and the Activity [36] was “Non-Toxic”. For the same compound, the Activity [37] was 51.3% and the Activity [38] was “Active”.
